We go through four molecules from US10738068B2, “Organic/inorganic hybrid nanoparticulates made from iron carboxylates” (CENTRE NATIONAL DE LA RECHERCHE SCIENTIFIQUE—CNRS, priority 2007, dated 2020).

The conditions of series [1]: cited from earlier work.
The nature of series [2]: Solubility of busulfan in various solvents. It is filed as physicochemical. From the text: The solvents chosen for the impregnation are those in which busulfan has appreciable solubility (acetone, acetonitrile, chloroform, dichloromethane, dimethyl carbonate) (Table 18).

≈ marks a conversion by molar mass, not a printed value. Read-outs that look alike come from different tables or passages of the source.

With `CC(=O)O[C@H]1C(=O)[C@@]2(C)[C@H]([C@H](OC(=O)c3ccccc3)[C@]3(O)C[C@H](OC(=O)[C@H](O)[C@@H](NC(=O)c4ccccc4)c4ccccc4)C(C)=C1C3(C)C)[C@]1(OC(C)=O)CO[C@@H]1C[C@@H]2O` [Paclitaxel], the “Solubility in ethanol and in DMSO” value in series [1] (ethanol, DMSO) was “about 50 g/L”.

With `Nc1ccn([C@@H]2O[C@H](CO)[C@@H](O)C2(F)F)c(=O)n1` [Gemcitabine], the “Solubility in water” value in series [1] is on record as “water soluble”.

As for `NC(N)=O` [Urea], the Solubility in water in series [1] (20° C.) was 1080 mg/mL (≈ 18000 mM).

`CS(=O)(=O)OCCCCOS(C)(=O)=O` [busulfan, 1,4-butanediol dimethylsulfonate]: the Busulfan solubility is 8 mg/mL in series [2] (Chloroform); <<<4 mg/ml in series [2] (Ethanol); <<<4 mg/ml in series [2] (Ether); <<<4 mg/ml in series [2] (Hexane); <<<4 mg/ml in series [2] (Methanol); around 5 mg/mL in series [2] (Tetrahydrofuran). In addition, the Busulfan solubility in series [2] (Toluene) was around 4 mg/mL.
